According to the Kinase Knowledgebase extract (Sharma et al. 2016):
“And” between values parts separate entries of the source, which are not always exact repeats. Equal values may be shown once.

What follows are molecules tested against CDK2 (UniProt P24941) (assay: Enzyme Assay).

| SMILES | IC50 |
| --- | --- |
| CC(C)c1cc(NCc2ccc[n+]([O-])c2)n2ncc(Br)c2n1 | 0.1 to 100 nM |
| CC(=O)N1CCC(c2cc(NCc3cccnc3)n3ncc(Br)c3n2)CC1 | 0.1 to 100 nM |
| Nc1ncc(CNc2cc(C3CCCNC3)nc3c(Br)cnn23)cn1 (centres undefined) | 0.1 to 100 nM |
| O=C(C1CC1)N1CCC(c2cc(NCc3cccnc3)n3ncc(Br)c3n2)CC1 | 0.1 to 100 nM |
| Cn1cnc2cc(CNc3cc(-c4ccccc4)nc4c(Br)cnn34)ccc21 | 0.1 to 100 nM |
| CC(C)[C@@H](CO)Nc1cc(NCc2ccc[n+]([O-])c2)n2ncc(Br)c2n1 | 0.1 to 100 nM |
| CC(C)[C@H](CO)Nc1cc(NCc2ccc[n+]([O-])c2)n2ncc(Br)c2n1 | 0.1 to 100 nM |
| CCc1cnn2c(NCc3cccnc3)cc(-c3ccccc3)nc12 | 0.1 to 100 nM |
| OCCC1CCCCN1c1cc(NCc2cccnc2)n2ncc(Br)c2n1 (centres undefined) | 0.1 to 100 nM |
| CCc1cnn2c(NCc3ccc[n+]([O-])c3)cc(C3CCCCC3)nc12 | 0.1 to 100 nM |
| Brc1cnn2c(NCc3cccnc3)cc(C3CCCNC3)nc12 (centres undefined) | 0.1 to 100 nM |
| CCc1cnn2c(NCc3ccc(OC)[n+]([O-])c3)cc(-c3ccccc3F)nc12 | 0.1 to 100 nM |
| Cc1ccccc1-c1cc(NCc2ccc[n+]([O-])c2)n2ncc(Br)c2n1 | 0.1 to 100 nM |
| OCC1CCCCN1c1cc(NCc2cccnc2)n2ncc(Br)c2n1 (centres undefined) | 0.1 to 100 nM |
| COc1ccc(CNc2cc(-c3ccccc3F)nc3c(Br)cnn23)c[n+]1[O-] | 0.1 to 100 nM |
| CCc1cnn2c(NCc3ccnc(O)c3)cc(-c3ccccc3)nc12 | 0.1 to 100 nM |

| SMILES | IC50 |
| --- | --- |
| Fc1ccccc1-c1cc(NCc2ccc3[nH]cnc3c2)n2ncc(Br)c2n1 | 0.1 to 100 nM |
| [O-][n+]1cccc(CNc2cc(C3CCOCC3)nc3c(Br)cnn23)c1 | 0.1 to 100 nM |
| O=c1cc(CNc2cc(-c3ccccc3)nc3c(Br)cnn23)cc[nH]1 | 0.1 to 100 nM |
| [O-][n+]1cccc(CNc2cc(C3CCCCC3)nc3c(Br)cnn23)c1 | 0.1 to 100 nM |
| OCC1(Nc2cc(NCc3cccnc3)n3ncc(Br)c3n2)CCCC1 | 0.1 to 100 nM |
| Fc1ccccc1-c1cc(NCc2ccncc2)n2ncc(Br)c2n1 | 32 nM and 24 nM |
| [O-][n+]1cccc(CNc2cc(-c3ccccc3Cl)nc3c(Br)cnn23)c1 | 0.1 to 100 nM |
| [O-][n+]1cccc(CNc2cc(-c3cccs3)nc3c(Br)cnn23)c1 | 0.1 to 100 nM |
| CN1CCN(c2cc(NCc3cccnc3)n3ncc(Br)c3n2)CC1 | 140 nM |
| O=c1ccc(CNc2cc(-c3ccccc3F)nc3c(Br)cnn23)c[nH]1 | 0.1 to 100 nM |
| N[C@H]1CC[C@H](Nc2cc(NCc3cccnc3)n3ncc(Br)c3n2)CC1 | 0.1 to 100 nM |
| NC(=O)N1CCCC(c2cc(NCc3cccnc3)n3ncc(Br)c3n2)C1 (centres undefined) | 0.1 to 100 nM |
| [O-][n+]1cccc(CNc2cc(-c3ccco3)nc3c(Br)cnn23)c1 | 0.1 to 100 nM |
| CCc1cnn2c(NCc3ccc[n+]([O-])c3)cc(-c3ccccc3)nc12 | 0.1 to 100 nM |
| [O-][n+]1cccc(CNc2cc(N3CCC[C@H]3CO)nc3c(Br)cnn23)c1 | 0.1 to 100 nM |

Further lines, results first:

| IC50 | SMILES |
| --- | --- |
| 0.1 to 100 nM | CCOc1ccc(CNc2cc(-c3ccccc3)nc3c(Br)cnn23)c[n+]1[O-] |
| 0.1 to 100 nM | OCC[C@@H]1CCCN1c1cc(NCc2cccnc2)n2ncc(Br)c2n1 |
| 0.1 to 100 nM | CC(C)Oc1ccc(CNc2cc(-c3ccccc3F)nc3c(Br)cnn23)c[n+]1[O-] |
| 0.1 to 100 nM | OC[C@H]1CCCC[C@H]1Nc1cc(NCc2cccnc2)n2ncc(Br)c2n1 |
| 0.1 to 100 nM | Brc1cnn2c(NCc3ccc4[nH]cnc4c3)cc(C3CCCCC3)nc12 |
| 0.1 to 100 nM | [O-][n+]1cccc(CNc2cc(-c3ccccc3)nc3c(Br)cnn23)c1 |
| 0.1 to 100 nM | [O-][n+]1cccc(CNc2cc(C3CCNCC3)nc3c(Br)cnn23)c1 |
| 0.1 to 100 nM | [O-][n+]1cc(CNc2cc(-c3ccccc3)nc3c(Br)cnn23)ccc1OCC(F)(F)F |
| 0.1 to 100 nM | CC(C)(O)[C@H]1CCCC[C@H]1c1cc(NCc2cccnc2)n2ncc(Br)c2n1 |
| 0.1 to 100 nM | COc1c(Cl)cc(CNc2cc(-c3ccccc3)nc3c(Br)cnn23)c[n+]1[O-] |
| 0.1 to 100 nM | CC(=O)N1CCCC(c2cc(NCc3cccnc3)n3ncc(Br)c3n2)C1 (centres undefined) |
| 0.1 to 100 nM | Brc1cnn2c(NCc3cccnc3)cc(-c3ccco3)nc12 |
| 0.1 to 100 nM | CC1(C)[C@@H]2[C@@H](CO)N(c3cc(NCc4cccnc4)n4ncc(Br)c4n3)C[C@@H]21 |
| 0.1 to 100 nM | Brc1cnn2c(NCc3cccnc3)cc(C3CCNCC3)nc12 |
| 0.1 to 100 nM | Brc1cnn2c(NCc3cccnc3)cc(C3CCOCC3)nc12 |
| 0.1 to 100 nM | CC(C)(O)[C@@H]1CCCN1c1cc(NCc2ccc[n+]([O-])c2)n2ncc(Br)c2n1 |
| 0.1 to 100 nM | NC(=O)N1CCC(c2cc(NCc3cccnc3)n3ncc(Br)c3n2)CC1 |

| IC50 | SMILES |
| --- | --- |
| 0.1 to 100 nM | O=c1ccc(CNc2cc(-c3ccccc3)nc3c(Br)cnn23)c[nH]1 |
| 0.1 to 100 nM | Brc1cnn2c(NCc3cccnc3)cc(C3CCCCC3)nc12 |
| 0.1 to 100 nM | Brc1cnn2c(NCc3ccc(-c4csnn4)cc3)cc(C3CCNCC3)nc12 |
| 0.1 to 100 nM | CS(=O)(=O)N1CCC(c2cc(NCc3cccnc3)n3ncc(Br)c3n2)CC1 |
| 0.1 to 100 nM | [O-][n+]1cccc(CNc2cc(-c3ccc(Cl)cc3)nc3c(Br)cnn23)c1 |
| 0.1 to 100 nM | CNC(=O)c1ccc(CNc2cc(-c3ccccc3F)nc3c(Br)cnn23)cc1 |
| 0.1 to 100 nM | Oc1cc(CNc2cc(C3CCCCC3)nc3c(Br)cnn23)ccn1 |
| 0.1 to 100 nM | CC(C)(O)[C@@H]1CCCN1c1cc(NCc2cccnc2)n2ncc(Br)c2n1 |
| 0.1 to 100 nM | OC[C@H]1CCCC[C@H]1c1cc(NCc2cccnc2)n2ncc(Br)c2n1 |
| 0.1 to 100 nM | CS(=O)(=O)N1CCCC(c2cc(NCc3cccnc3)n3ncc(Br)c3n2)C1 (centres undefined) |
| 0.1 to 100 nM | Brc1cnn2c(NCc3cccnc3)cc(-c3ccccc3)nc12 |
| 0.1 to 100 nM | CC(C)(CO)Nc1cc(NCc2cccnc2)n2ncc(Br)c2n1 |
| 0.1 to 100 nM | [O-][n+]1cccc(CNc2cc(-c3ccccc3F)nc3c(Br)cnn23)c1 |
| 0.1 to 100 nM | CCc1cnn2c(NCc3ccc[n+]([O-])c3)cc(-c3ccccc3F)nc12 |
| 0.1 to 100 nM | O=c1ccc(CNc2cc(C3CCCCC3)nc3c(Br)cnn23)c[nH]1 |
| 0.1 to 100 nM | Brc1cnn2c(NCc3ccc4[nH]cnc4c3)cc(C3CCNCC3)nc12 |
